Target: T1, N-terminal HiBiT tagged BCL-XL (Homo sapiens, UniProt Q07817)
T1 construct: expressed in transfected cells; host or cells: HT-1080 (ATCC CCL-121) cells stably transduced with lentivirus pLV-UBC-N-HiBiT-BCL-XL-PGK-puro
Assay: HiBiT based degradation assay
Format: cell-based
Conditions: HT1080 cells expressing N-terminal HiBiT tagged BCL-XL, BCL-XL level normalized with DMSO control
Description: Human BCL-XL protein coding open reading frame fused with N-terminal HiBiT coding sequence was synthesized from Integrated DNA Technologies (IDT). Next, N-HiBiT-BCL-XL sequence was cloned into pLV-UBC-PGK-Puro, a lentivirus plasmid purchased from Vectorbuilder, to generate pLV-UBC-N-HiBiT-BCL-XL-PGK-puro. Lentiviral particles were generated from Lenti-X™ 293T cells (Clontech) by co-transfection of pLV-UBC-N-HiBiT-BCL-XL-PGK-puro plasmids and lentiviral packaging plasmid mix (Cellecta). HT-1080 [HT1080](ATCC CCL-121) cells were infected with the lentivirus, and HT1080 cells stably integrated with the lentiviral vectors were established by incubation with […] puromycin (Thermofisher).
HT1080 cells expressing N-terminal HiBiT tagged BCL-XL were dispensed into a 384-well plate pre-spotted with compounds at varying concentrations. Three thousand cells were seeded into each well in 40 μL of RPMI 1640 media. […] After incubation, luminescence was read on a PHERAstar FSX Plate Reader (BMG). BCL-XL degradation at each indicated concentration was normalized with the DMSO control. The BCL-XL degradation curves were plotted using a four-parameter logistic model. For compounds displaying hook effects, the curve fitting was performed using the bottom point of the hook curves (i.e., the point of Ymin) as the bottom plateau to calculate EC50.

T1 sequence (Q07817 whole entry): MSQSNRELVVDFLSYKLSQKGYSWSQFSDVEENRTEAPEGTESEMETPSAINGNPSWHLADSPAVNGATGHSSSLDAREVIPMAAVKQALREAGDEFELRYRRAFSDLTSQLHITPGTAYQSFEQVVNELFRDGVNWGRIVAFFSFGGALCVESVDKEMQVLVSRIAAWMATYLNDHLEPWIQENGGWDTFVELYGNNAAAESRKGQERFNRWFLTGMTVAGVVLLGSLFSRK

Compound | Ymin (24 h) | Ymin (6 h)
Cc1c(OCC2CC3(CCN(CCN4CCN(c5cc6c(cc5F)C(=O)N(C5CCC(=O)NC5=O)C6=O)CC4)CC3)C2)cccc1-c1ccc(N2CCc3cccc(C(=O)Nc4nc5ccccc5s4)c3C2)nc1C(=O)O (stereo not drawn) [Compound 132, 6-(8-(benzo[d]thiazol-2-ylcarbamoyl)-3,4-dihydroisoquinolin-2(1H)-yl)-3-(3-((7-(2-(4-(2-(2,6-dioxopiperidin-3-yl)-6-fluoro-1,3-dioxoisoindolin-5-yl)piperazin-1-yl)ethyl)-7-azaspiro[3.5]nonan-2-yl)methoxy)-2-methylphenyl)picolinic acid] | B (50% ≤ Ymin < 70%) | –
Cc1c(OCCCC[C@@H]2CCCN(CC(=O)N3CCN(c4cc5c(cc4F)C(=O)N(C4CCC(=O)NC4=O)C5=O)CC3)C2)cccc1-c1ccc(N2CCc3cccc(C(=O)Nc4nc5ccccc5s4)c3C2)nc1C(=O)O (stereo partly drawn) [Compound 135a, 6-[8-(1,3-benzothiazol-2-ylcarbamoyl)-3,4-dihydro-1H-isoquinolin-2-yl]-3-[3-[4-[(3R)-1-[2-[4-[2-(2,6-dioxo-3-piperidyl)-6-fluoro-1,3-dioxo-isoindolin-5-yl]piperazin-1-yl]-2-oxo-ethyl]-3-piperidyl]butoxy]-2-methyl-phenyl]pyridine-2-carboxylic acid] | B (50% ≤ Ymin < 70%) | –
Cc1c(OCCCC[C@H]2CCCN(CC(=O)N3CCN(c4cc5c(cc4F)C(=O)N(C4CCC(=O)NC4=O)C5=O)CC3)C2)cccc1-c1ccc(N2CCc3cccc(C(=O)Nc4nc5ccccc5s4)c3C2)nc1C(=O)O (stereo partly drawn) [Compound 135b, 6-[8-(1,3-benzothiazol-2-ylcarbamoyl)-3,4-dihydro-1H-isoquinolin-2-yl]-3-[3-[4-[(3S)-1-[2-[4-[2-(2,6-dioxo-3-piperidyl)-6-fluoro-1,3-dioxo-isoindolin-5-yl]piperazin-1-yl]-2-oxo-ethyl]-3-piperidyl]butoxy]-2-methyl-phenyl]pyridine-2-carboxylic acid] | B (50% ≤ Ymin < 70%) | –
Cc1c(OCCCCCCCN2CCN(c3cc4c(cc3F)C(=O)N(C3CCC(=O)NC3=O)C4=O)CC2)cccc1-c1ccc(N2CCc3cccc(C(=O)Nc4nc5ccccc5s4)c3C2)nc1C(=O)NO (stereo not drawn) [Compound 137, N-(benzo[d]thiazol-2-yl)-2-(5-(3-((7-(4-(2-(2,6-dioxopiperidin-3-yl)-6-fluoro-1,3-dioxoisoindolin-5-yl)piperazin-1-yl)heptyl)oxy)-2-methylphenyl)-6-(hydroxycarbamoyl)pyridin-2-yl)-1,2,3,4-tetrahydroisoquinoline-8-carboxamide] | B (50% ≤ Ymin < 70%) | C (Ymin ≥ 70%)
Cc1cc(OCCCC2CCN(CC(=O)N3CCN(c4cc5c(cc4F)C(=O)N(C4CCC(=O)NC4=O)C5=O)CC3)CC2)ccc1-c1ccc(N2CCc3cccc(C(=O)Nc4nc5ccccc5s4)c3C2)nc1C(=O)O (stereo not drawn) [Compound 138] | B (50% ≤ Ymin < 70%) | C (Ymin ≥ 70%)
Cc1c(O[C@H]2CC[C@H](CCCC(=O)N3CCN(c4cc5c(cc4F)C(=O)N(C4CCC(=O)NC4=O)C5=O)CC3)CC2)cccc1-c1ccc(N2CCc3cccc(C(=O)Nc4nc5ccccc5s4)c3C2)nc1C(=O)O (stereo partly drawn) [Compound 139a, 6-(8-(benzo[d]thiazol-2-ylcarbamoyl)-3,4-dihydroisoquinolin-2(1H)-yl)-3-(3-(((1s,4r)-4-(4-(4-(2-(2,6-dioxopiperidin-3-yl)-6-fluoro-1,3-dioxoisoindolin-5-yl)piperazin-1-yl)-4-oxobutyl)cyclohexyl)oxy)-2-methylphenyl)picolinic acid] | B (50% ≤ Ymin < 70%) | –
Cc1c(O[C@H]2CC[C@H](CCC(=O)N3CCC(c4cc5c(cc4F)C(=O)N(C4CCC(=O)NC4=O)C5=O)CC3)CC2)cccc1-c1ccc(N2CCc3cccc(C(=O)Nc4nc5ccccc5s4)c3C2)nc1C(=O)O (stereo partly drawn) [Compound 140a, 6-(8-(benzo[d]thiazol-2-ylcarbamoyl)-3,4-dihydroisoquinolin-2(1H)-yl)-3-(3-(((1r,4r)-4-(3-(4-(2-(2,6-dioxopiperidin-3-yl)-6-fluoro-1,3-dioxoisoindolin-5-yl)piperidin-1-yl)-3-oxopropyl)cyclohexyl)oxy)-2-methylphenyl)picolinic acid] | A (Ymin < 50%) | C (Ymin ≥ 70%)
Cc1c(OCCCCC2CCN(CC(=O)N3CCN(c4cc5c(cc4F)C(=O)N(C4CCC(=O)NC4=O)C5=O)CC3)CC2)cccc1-c1ccc(N2CCc3cccc(C(=O)Nc4nc5ccccc5s4)c3C2)nc1C(=O)O (stereo not drawn) [Compound 141] | B (50% ≤ Ymin < 70%) | B (50% ≤ Ymin < 70%)
Cc1c(OCCCC2CCN(CC3CCN(c4cc5c(cc4F)C(=O)N(C4CCC(=O)NC4=O)C5=O)CC3)CC2)cccc1-c1ccc(N2CCc3cccc(C(=O)Nc4nc5ccccc5s4)c3C2)nc1C(=O)O (stereo not drawn) [Compound 143, 6-[8-(1,3-benzothiazol-2-ylcarbamoyl)-3,4-dihydro-1H-isoquinolin-2-yl]-3-[3-[3-[1-[[1-[2-(2,6-dioxo-3-piperidyl)-6-fluoro-1,3-dioxo-isoindolin-5-yl]-4-piperidyl]methyl]-4-piperidyl]propoxy]-2-methyl-phenyl]pyridine-2-carboxylic acid] | B (50% ≤ Ymin < 70%) | –
Cc1c(OCCCCC2CCN(CC3CCN(c4cc5c(cc4F)C(=O)N(C4CCC(=O)NC4=O)C5=O)CC3)CC2)cccc1-c1ccc(N2CCc3cccc(C(=O)Nc4nc5ccccc5s4)c3C2)nc1C(=O)O (stereo not drawn) [Compound 144, 6-[8-(1,3-benzothiazol-2-ylcarbamoyl)-3,4-dihydro-1H-isoquinolin-2-yl]-3-[3-[4-[1-[[1-[2-(2,6-dioxo-3-piperidyl)-6-fluoro-1,3-dioxo-isoindolin-5-yl]-4-piperidyl]methyl]-4-piperidyl]butoxy]-2-methyl-phenyl]pyridine-2-carboxylic acid] | A (Ymin < 50%) | –
Cc1c(OCCC2CCN(CC3CCN(c4cc5c(cc4F)C(=O)N(C4CCC(=O)NC4=O)C5=O)CC3)CC2)cccc1-c1ccc(N2CCc3cccc(C(=O)Nc4nc5ccccc5s4)c3C2)nc1C(=O)O (stereo not drawn) [Compound 145, 6-[8-(1,3-benzothiazol-2-ylcarbamoyl)-3,4-dihydro-1H-isoquinolin-2-yl]-3-[3-[2-[1-[[1-[2-(2,6-dioxo-3-piperidyl)-6-fluoro-1,3-dioxo-isoindolin-5-yl]-4-piperidyl]methyl]-4-piperidyl]ethoxy]-2-methyl-phenyl]pyridine-2-carboxylic acid] | A (Ymin < 50%) | –

Source: patent publication US20250282771A1, “TETRAHYDROISOQUINOLINE HETEROBIFUNCTIONAL BCL-XL DEGRADERS” (Treeline Biosciences, Inc., priority 2022, published 2025)
